Data from patent US8211654B2, “High-throughput assay for sugar-mediated drug transport” (Wisconsin Alumni Research Foundation, priority 2008, dated 2012).

How the values were obtained:
GLUT7 = target: T1, GLUT7 (Homo sapiens, UniProt Q6PXP3); conditions: literature; cited from earlier work
T1 construct: host or cells: Xenopus oocytes mainly; also COS-7, CHO, yeast variants (not tied to single values)
T1 sequence (Q6PXP3 1-512): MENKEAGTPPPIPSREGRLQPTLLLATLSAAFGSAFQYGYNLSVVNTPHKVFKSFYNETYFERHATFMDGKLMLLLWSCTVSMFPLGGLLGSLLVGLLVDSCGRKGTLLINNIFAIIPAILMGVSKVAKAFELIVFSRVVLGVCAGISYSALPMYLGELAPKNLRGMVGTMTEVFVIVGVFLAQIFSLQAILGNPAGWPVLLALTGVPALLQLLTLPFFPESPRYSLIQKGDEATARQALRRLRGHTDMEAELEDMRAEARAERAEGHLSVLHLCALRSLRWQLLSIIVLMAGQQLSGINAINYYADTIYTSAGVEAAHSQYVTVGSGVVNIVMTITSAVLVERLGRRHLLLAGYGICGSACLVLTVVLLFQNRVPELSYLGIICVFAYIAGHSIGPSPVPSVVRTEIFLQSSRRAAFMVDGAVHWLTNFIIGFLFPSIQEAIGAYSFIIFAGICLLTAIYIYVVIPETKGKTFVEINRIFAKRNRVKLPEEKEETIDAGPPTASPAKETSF

GLUT11 = target: T2, GLUT11 (Homo sapiens, UniProt Q9BYW1); conditions: literature; cited from earlier work
T2 construct: host or cells: Xenopus oocytes mainly; also COS-7, CHO, yeast variants (not tied to single values)
T2 sequence (Q9BYW1 1-496): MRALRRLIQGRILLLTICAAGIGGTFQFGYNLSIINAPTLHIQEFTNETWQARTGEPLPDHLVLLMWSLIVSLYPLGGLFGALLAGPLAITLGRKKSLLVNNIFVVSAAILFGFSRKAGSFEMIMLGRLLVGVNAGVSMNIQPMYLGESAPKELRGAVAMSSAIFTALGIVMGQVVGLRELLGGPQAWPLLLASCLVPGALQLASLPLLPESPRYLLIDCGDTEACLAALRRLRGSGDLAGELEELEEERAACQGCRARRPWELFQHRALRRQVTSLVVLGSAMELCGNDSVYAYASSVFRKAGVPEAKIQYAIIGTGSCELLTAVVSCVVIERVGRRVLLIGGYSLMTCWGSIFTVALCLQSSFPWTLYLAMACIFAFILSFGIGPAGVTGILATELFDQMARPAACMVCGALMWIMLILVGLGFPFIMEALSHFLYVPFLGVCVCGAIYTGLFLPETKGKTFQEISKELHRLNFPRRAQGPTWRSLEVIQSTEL

[1] = test system: MCF10A (immortalized breast), MCF7 (breast cancer), A549 (non-small cell lung cancer), Du145 (prostrate cancer), RWPE (immortalized prostrate); experiment: Sugar transporter assay: uptake of sugar-fluorophore conjugates by intracellular fluorescence, normalized to cell number; type: cell-based; conditions: 1 hour incubation; dose range 250-0 μM; five cell lines; compared with D-glucose conjugate
Method: FIG. 5. Representative sugar transporter assays. […] For each cell line, the dose range was 250 μM, 125 μM, 62.5 μM, 31.3 μM, 15.6 μM, 7.8 μM, 3.9 μM and 0 μM. The average error (40 compounds, 5 cell lines) was 8.3%.
For the sugar transporter assay of the present invention, cells were plated at a density of 30,000 cells/ml (100 μL/well) in a 96-well clear bottom microtiter plates. Cells were allowed to attach overnight, and then incubated in glucose-free medium for an additional 24 hours. Compounds were added (from 96-well compound stock plates at a 1:100 dilution) using a Biomek FX liquid handler equipped with a 96 channel head. The plates were incubated for 1 hour and then the compound solution was removed by gentle aspiration. The cells were subsequently washed (1×100 μL) with phosphate buffered saline to remove residual fluorescent dye.
Sugar-conjugate uptake was assessed via intracellular fluorescence (FIG. 4b-4f) as determined using a Safire2™ multi-mode microplate reader (δex=485 nm, δem=535 nm) and normalized to cell number by a subsequent CellTiter-Glo® luminescent cell viability assay. […] The CellTiter-Glo® luminescent cell viability assay was analyzed on a Safire2™ multi-mode microplate reader for luminescence at 1 second per well. As an initial preliminary study, the transport assay with a representative set of probes was also analyzed using microscopy (FIG. 6).

GLUT2 = target: T3, GLUT2 (Homo sapiens, UniProt P11168); conditions: literature; cited from earlier work
T3 construct: host or cells: Xenopus oocytes mainly; also COS-7, CHO, yeast variants (not tied to single values)
T3 sequence (P11168 1-524): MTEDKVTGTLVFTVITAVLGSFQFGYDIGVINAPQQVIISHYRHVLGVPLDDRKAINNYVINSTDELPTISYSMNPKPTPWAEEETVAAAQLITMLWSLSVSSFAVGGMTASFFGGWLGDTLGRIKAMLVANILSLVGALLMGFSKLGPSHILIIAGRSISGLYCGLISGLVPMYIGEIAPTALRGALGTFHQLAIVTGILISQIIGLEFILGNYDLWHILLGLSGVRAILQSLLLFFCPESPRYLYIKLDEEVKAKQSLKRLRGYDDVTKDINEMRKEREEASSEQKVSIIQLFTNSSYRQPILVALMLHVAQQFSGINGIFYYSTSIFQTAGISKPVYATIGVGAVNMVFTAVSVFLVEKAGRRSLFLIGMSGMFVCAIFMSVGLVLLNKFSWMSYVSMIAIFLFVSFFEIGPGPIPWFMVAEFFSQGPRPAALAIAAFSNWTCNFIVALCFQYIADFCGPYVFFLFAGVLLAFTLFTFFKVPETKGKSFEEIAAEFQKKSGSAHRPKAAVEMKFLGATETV

[2] = compared with the parent ifosfamide; cited from earlier work
GLUT3 = target: T4, GLUT3 (Homo sapiens, UniProt P11169); conditions: literature; cited from earlier work
T4 construct: host or cells: Xenopus oocytes mainly; also COS-7, CHO, yeast variants (not tied to single values)
T4 sequence (P11169 1-496): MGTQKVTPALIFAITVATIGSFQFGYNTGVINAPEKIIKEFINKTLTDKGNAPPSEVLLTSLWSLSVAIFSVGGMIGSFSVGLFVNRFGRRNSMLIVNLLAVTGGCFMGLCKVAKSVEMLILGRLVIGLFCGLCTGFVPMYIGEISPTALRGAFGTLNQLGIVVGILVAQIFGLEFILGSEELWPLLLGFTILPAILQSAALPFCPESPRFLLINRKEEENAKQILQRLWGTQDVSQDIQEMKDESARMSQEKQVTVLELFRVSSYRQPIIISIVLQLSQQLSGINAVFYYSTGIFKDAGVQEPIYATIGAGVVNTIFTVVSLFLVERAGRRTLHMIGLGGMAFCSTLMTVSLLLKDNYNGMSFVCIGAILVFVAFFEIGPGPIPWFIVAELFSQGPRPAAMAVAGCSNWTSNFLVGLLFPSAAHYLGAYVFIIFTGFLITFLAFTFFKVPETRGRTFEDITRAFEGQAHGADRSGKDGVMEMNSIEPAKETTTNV

GLUT9 = target: T5, GLUT9 (Homo sapiens, UniProt Q9NRM0); conditions: literature; cited from earlier work
T5 construct: host or cells: Xenopus oocytes mainly; also COS-7, CHO, yeast variants (not tied to single values)
T5 sequence (Q9NRM0 1-540): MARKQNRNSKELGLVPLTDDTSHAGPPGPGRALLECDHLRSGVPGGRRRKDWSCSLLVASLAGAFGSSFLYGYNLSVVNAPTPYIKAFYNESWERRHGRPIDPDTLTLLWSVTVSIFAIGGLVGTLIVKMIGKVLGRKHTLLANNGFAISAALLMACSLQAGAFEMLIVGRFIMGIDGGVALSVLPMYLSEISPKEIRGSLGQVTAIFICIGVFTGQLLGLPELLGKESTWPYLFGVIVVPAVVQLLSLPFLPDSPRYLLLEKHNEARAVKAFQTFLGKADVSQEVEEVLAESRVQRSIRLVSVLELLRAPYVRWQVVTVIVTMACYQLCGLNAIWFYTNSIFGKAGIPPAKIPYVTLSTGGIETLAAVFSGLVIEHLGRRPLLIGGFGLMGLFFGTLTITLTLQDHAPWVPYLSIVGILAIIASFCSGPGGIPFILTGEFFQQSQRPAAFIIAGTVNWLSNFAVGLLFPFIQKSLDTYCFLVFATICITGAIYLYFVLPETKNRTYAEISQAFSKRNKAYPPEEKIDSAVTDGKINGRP

GLUT5 = target: T6, GLUT5 (Homo sapiens, UniProt P22732); conditions: literature; cited from earlier work
T6 construct: host or cells: Xenopus oocytes mainly; also COS-7, CHO, yeast variants (not tied to single values)
T6 sequence (P22732 1-501): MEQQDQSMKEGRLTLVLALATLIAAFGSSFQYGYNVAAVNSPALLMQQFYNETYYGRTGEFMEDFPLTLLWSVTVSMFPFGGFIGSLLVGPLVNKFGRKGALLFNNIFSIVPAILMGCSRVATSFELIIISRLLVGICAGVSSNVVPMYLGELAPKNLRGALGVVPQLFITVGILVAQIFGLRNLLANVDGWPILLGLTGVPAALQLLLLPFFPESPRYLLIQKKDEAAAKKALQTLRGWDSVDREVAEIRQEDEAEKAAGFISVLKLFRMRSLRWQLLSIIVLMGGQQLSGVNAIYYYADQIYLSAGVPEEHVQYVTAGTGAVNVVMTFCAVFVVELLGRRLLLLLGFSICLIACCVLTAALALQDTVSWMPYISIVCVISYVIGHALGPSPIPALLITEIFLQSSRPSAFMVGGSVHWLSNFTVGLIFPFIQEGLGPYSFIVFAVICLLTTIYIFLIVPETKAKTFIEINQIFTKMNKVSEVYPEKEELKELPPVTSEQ

Q: Which “transport by GLUT7” value (GLUT7) does the source give for `O=C[C@H](O)[C@@H](O)[C@H](O)CO` [xylose] here?
A: Its value is “does not transport”.

Q: With `O=C[C@H](O)[C@@H](O)[C@@H](O)[C@H](O)CO` [galactose] as the compound, how does the “transport by GLUT11” value (GLUT11) read?
A: Its value is “not galactose”.

Q: And the “transport by GLUT7” value (GLUT7)?
A: The value was “does not transport”.

Q: For aminofluoroscein [parent 11], which “sugar-conjugate uptake (intracellular fluorescence normalized to cell number)” value [1] is on record?
A: The value was “No uptake”.

Q: For `N[C@H]1C(O)O[C@H](CO)[C@@H](O)[C@@H]1O` (stereo partly drawn) [glucosamine], which “affinity for GLUT2” value (GLUT2) is on record?
A: Its value is “approximately 1 mM”.

Q: Which antitumor activity [2] does the source give for `O=P(NCCCl)(NCCCl)O[C@@H]1O[C@H](CO)[C@@H](O)[C@H](O)[C@H]1O` [glufosfamide] here?
A: Its antitumor activity is “higher antitumor activity”.

Q: What about the myelotoxicity [2] of the same compound?
A: Its myelotoxicity is “lower myelotoxicity”.

Q: For `O=CC[C@@H](O)[C@H](O)[C@H](O)CO` [2-deoxyglucose], which “transport by GLUT7” value (GLUT7) is on record?
A: Its value is “does not transport”.

Q: What about the “affinity for GLUT3” value (GLUT3) of the same compound?
A: Its value is “approximately 1.5 mM”.

Q: What about the “transport by GLUT9” value (GLUT9) of the same compound?
A: The value was “transport”.

Q: Which results are given for `O=C(CO)[C@@H](O)[C@H](O)[C@H](O)CO` [fructose]?
A: transport by GLUT11 (GLUT11): provides for transport; affinity for GLUT5 (GLUT5): approximately 1 mM
